# Measurements as given in patent US20220175850A1, “COMPOSITIONS AND METHODS FOR CANCER THERAPY” (priority 2019, published 2022).
# How the values were obtained:
# HCC827GR cells = test: Marker protein expression in Iressa-resistant HCC827GR lung cancer cells; format: cell-based, human
# Description: The HCC827GR cell line is a lung cancer cell line that is resistant to Iressa.
# [1] = system: triple negative breast cancer cells; test: Tumor marker expression in animal model of triple negative breast cancer, supplement with or without chemotherapeutic drugs; format: in vivo, mice; conditions: primary tumor; supplement at low, mid, high dose with Taxol or Adriamycin; drugs alone
# [2] = system: triple negative breast cancer cells; test: as above; format: in vivo, mice
# Procedure: […] Animals were also treated with taxol, taxol and the supplement in combination, adriamycin, adriamycin and the supplement in combination, avastin, and avastin and the supplement in combination.
# FIG. 9A depicts a typical study design for animal model studies of this phenomena. Three different supplement formulations were used that provided low (NFS), mid (NFM-containing 1.5 times the Se content of NFS), and high (NFH, containing twice the Se content of NFS) doses of selenium and fish oil. These supplement formulations were provided in combination with a chemotherapeutic drug (such as Taxol or Adriamycin).
# As noted above, nutritional supplements can be provided that include different amounts of selenium (Se), and can also be provided with or used in combination with a chemotherapeutic agent.
# CD24 and CD29 are markers that are commonly used to determine degree of stem cell character. […] Mice were also treated with taxol, taxol and the supplement in combination, adriamycin, adriamycin and the supplement in combination, avastin, and avastin and the nutritional supplement in combination. […] As in FIG. 9, nutritional supplements containing low, mid, and high amounts of selenium were provided in combination with either avastin or taxol.
# [3] = system: A549 human lung cancer sphere cells; test: Marker protein expression in stem-cell like A549 sphere cells; format: cell-based
# Description: FIG. 7B depicts an exemplary Western blot of PD-L1 expression in stem-cell like sphere cells derived from A549 human lung cancer cells.
# [4] = metastatic brain tumor site, different amounts of supplement in combination with Taxol, taxol alone
# [5] = tumor, supplement at low, mid, high doses in combination with taxol or avastin, drug alone
compound,measurement,setting,value
COc1cc2ncnc(Nc3ccc(F)c(Cl)c3)c2cc1OCCCN1CCOCC1 [Iressa],Axl expression,"HCC827GR cells; 24 hours of treatment, in either the absence or presence of Iressa",not reduced
same,Axl expression,HCC827GR cells; 72 hours,no apparent effect
same,HSP90 expression,HCC827GR cells; 72 hours,no apparent effect
same,PD-L1 expression,HCC827GR cells; chemotherapy resistant cancer cells,has no effect
COc1cccc2c1C(=O)c1c(O)c3c(c(O)c1C2=O)C[C@@](O)(C(=O)CO)C[C@@H]3O[C@H]1C[C@H](N)[C@H](O)[C@H](C)O1 [adriamycin],PD-1 expression,[1],increased slightly
same,PD-L1 expression,[1],no apparent effect
CC(=O)O[C@H]1C(=O)[C@@]2(C)[C@H]([C@H](OC(=O)c3ccccc3)[C@]3(O)C[C@H](OC(=O)[C@H](O)[C@@H](NC(=O)c4ccccc4)c4ccccc4)C(C)=C1C3(C)C)[C@]1(OC(C)=O)CO[C@@H]1C[C@@H]2O [taxol],CD24 expression,[2]; [4],no apparent effect
same,CD29 expression,[2]; [4],no apparent effect
same,MMP-9 expression,[2]; [4],no apparent effect
same,VEGF expression,[2]; [4],no apparent effect
same,EGFR expression,"[2]; tumor tissue, supplement with different amounts of selenium co-treated with taxol or avastin, drug alone",not impacted
same,PTEN expression,[2]; [5],increase induced by taxol
same,p-PTEN expression,[2]; [5],decrease induced by either taxol or avastin
same,p-STAT3 expression,[2]; [5],decrease induced by either taxol or avastin
same,PD-1 expression,[1],increased slightly
same,PD-L1 expression,[1],no apparent effect
avastin: chemotherapeutic agent used in the animal tumor model,CXCR4 expression,"[2]; tumor tissue, avastin alone or cotherapy with supplement at low, mid, high doses",little effect
same,p-PTEN expression,[2]; [5],decrease induced by either taxol or avastin
same,p-STAT3 expression,[2]; [5],decrease induced by either taxol or avastin
selenium,p-HSP27 expression,[3],not found
same,vimentin expression,[3],not seen
